# Measured values as given in US9730872B2, “Method for improving skin conditions with veratric acid or acceptable salt thereof as an active ingredient” (Bio Spectrum, Inc., priority 2012, dated 2017).
# Tests used:
# [1] = tested on: procollagen type I C-peptide (PICP); test: Collagen synthesis in human normal fibroblasts (PICP EIA); format: cell-based; conditions: 0, 1, 10 and 100 μM, 24 hours; FIG. 4
# Description: Human normal fibroblasts (Department of Dermatology, Ajou University) were seeded into a 24-well micro plate containing DMEM medium at a density of about 2×10^5 cells per well, and were cultured in a 5% CO2 incubator at 37° C. for 24 hours. Then, the medium was removed from each well of the plate, and each well was treated with 0, 1, 10 and 100 μM concentrations of veratric acid, after which the cells were cultured for 24 hours. Then, the cell medium was collected, thereby preparing samples.
# The amounts of collagen synthesis in the above-prepared samples was determined by measuring the amount of procollagen type I C-peptide (PICP) using a Procollagen Type I C-peptide EIA kit (MK101; Takara, Kyoto, Japan).
# [2] = tested on: fibroblast; test: UV-preventing effect, cell viability after UVB (MTT), fibroblasts; format: cell-based; conditions: pretreated 0, 1, 10 and 100 μM 24 hours, UVB 20 mJ/cm^2, 48 hours; FIG. 5
# Description: (§1) Keratinocyte (HaCaT) and fibroblast were cultured in DMEM medium containing penicillin-streptomycin and serum. Then, the cells were seeded into a 12-well micro plate at density of about 1×10^5 cells per well, and were cultured in a 5% CO2 incubator at 37° C. until the cells attached about 80% over on well-area. Then, each well was pretreated with 0, 1, 10 and 100 μM of veratric acid, and after 24 hours, the medium was replaced with PBS, and then the cells were irradiated with UV (UVB 20 mJ/cm^2). Then, the UV-irradiated cells were replaced DMEM medium containing penicillin-streptomycin and serum, the cells were incubated for 48 hours. The cell viability was determined by measuring the viability of keratinocyte (HaCaT) and fibroblast using a MTT assay (30-1010K, ATCCTM).
# [3] = tested on: transforming growth factor-beta1 (TGF-beta1); test: Inhibition of TGF-beta1 production in hair follicle dermal papilla cells (ELISA); format: cell-based, Human; conditions: 0, 10 and 100 μM, 48 hours; FIG. 3
# Description: (§2) Human hair follicle dermal papillar cells (Application, Inc., USA) were seeded into a 24-well micro plate at a density of 7.5×10^4 cells per well, and then were cultured in a 5% CO2 incubator at 37° C. for 24 hours. Then, the medium was replaced with serum-free medium, followed by being cultured for 16 hours. Then, each well was treated with 0, 10 and 100 μM of veratric acid, after which the cells were incubated for 48 hours. Then, the cell culture media were collected.
# The secretion rate of transforming growth factor-beta1 (TGF-beta1) was determined by measuring the amount of secretion rate of TGF-beta1 using Human LAP TFG-beta1 ELISA kit (ab100647, abcam, USA).
# [4] = tested on: human skin; test: Wrinkle-reducing effect of nourishing cream, skin elasticity; format: in vivo; conditions: face, twice a day, 3 months, scale 0 to 5
# Description: Specifically, an aqueous phase including purified water, triethanolamine, and propylene glycol was dissolved by heating to 70° C., and an oily phase including fatty acid, oily components, an emulsifier, and a preservative was dissolved by heating to 70° C. and added to the aqueous phase. Then, the resulting solution was cooled to 45° C., and veratric acid was added with in amounts of 0, 0.01, 0.05 and 1 wt % based on the total weight of the composition and was dispersed, followed by cooling to 30° C.
# In the measurement of skin elasticity, nourishing creams described in Preparation Example 8-1 was applied to the face of 30 healthy women of 21 to 42 years old twice a day for 3 months. The control group was used nourishing cream containing purified water.
# The effect on wrinkle reduction was evaluated by measuring a change in skin elasticity. The measurement of skin elasticity was performed with Coutometer SEM 474 (Courage+Khazaka, Cologne, Germany) under the conditions of constant temperature of 24˜26° C. and constant humidity of 38-40%. The evaluation criteria were as follows 0 indicating no improvement in skin elasticity, and 5 indicating improvement in skin elasticity.
# [5] = tested on: insulin-like growth factor-1 (IGF-1); test: IGF-1 secretion of hair follicle dermal papilla cells (ELISA); format: cell-based, Human; conditions: 0, 10 and 100 μM, 48 hours; FIG. 2
# Description: as §2, with “at” for “at a”
# The secretion rate of growth factor insulin-like growth factor-1 (IGF-1) was determined by measuring the amount of secretion rate of IGF-1 using Insulin-like growth factor-1 quantikine ELISA kit (DG100, R&D system, USA).
# [6] = tested on: collagenase (MMP-1); test: Inhibition of collagenase production in human normal fibroblasts (MMP-1 ELISA); format: cell-based; conditions: 0, 1, 10 and 100 μM, 24 hours; FIG. 7
# Description: Human normal fibroblasts (Department of Dermatology, Ajou University) were seeded into a 24-well micro plate containing DMEM medium at a density of about 2×10^5 cells per well, and were then cultured in a 5% CO2 incubator at 37° C. for 24 hours. Then, the medium was removed from each well, and the cells were treated with 0, 1, 10 and 100 μM concentrations of veratric acid. Then, the cells were cultured for 24 hours, after which the cell culture media were collected, thereby preparing samples.
# The inhibition effects of collagenase production was determined by measuring the amount of collagenase using MMP-1 ELISA kit (QIA55, Merck, Germany).
# [7] = tested on: hairless mice (Skh: HR-1); test: Wrinkle prevention by oral administration in UV-irradiated hairless mice (skin replicas); format: in vivo; conditions: 100 mg per kg oral, 5 weeks
# Description: In order to measure the wrinkle-preventing effect of veratric acid, 6-7-week-old hairless mice (Skh: HR-1) were divided into a control group, a UV group and a UV/veratric acid group, each consisting of 8 animals, and were bred during the test period. The control group and the UV group were administered orally with 0.5 ml of saline, and the UV/veratric acid group was administered orally with a solution of 100 mg per kg veratric acid in 0.5 ml of saline.
# The above-prepared samples were administered orally at the same point of time for 5 days a week for a total of 5 weeks. From 2 weeks to 5 weeks after oral administration, the UV group and the UV/veratric acid group were irradiated with UV light three times a week such that the total dose of UV radiation reached 600 mJ/cm^2.
# To measure the wrinkle-preventing effect of veratric acid, skin replicas were taken from the back of the hairless mice using a silicon polymer before autopsy. In the same manner, after 5 weeks, skin replicas were taken from the groups treated with each of the samples. Using the taken skin replicas, the antiaging effect, i.e., wrinkle-reducing effect of each sample was measured.
# [8] = tested on: Human hair follicle dermal papillar cells; test: Proliferation of human hair follicle dermal papilla cells (MTT); format: cell-based; conditions: 0, 10 and 100 μM, 72 hours, FIG. 1
# Description: Human hair follicle dermal papillar cells (Application, Inc., USA) were seeded into a 6-well micro plate containing DMEM medium (Gibco, USA) with FBS at a density of 3×10^5 cells per well, and then were cultured in a 5% CO2 incubator at 37° C. for 24 hours. The next day, the cells were washed once with serum-free medium, and the medium was replaced with serum-free medium. Then, the cells were treated with 0, 10 and 100 μM of veratric acid, followed by incubating for 72 hours, after which the cells were washed once with serum-free medium, the medium was replaced with serum-free medium containing 10% MTT, and after 3 hours, the optical density (O.D.) value was measured and calculated as a percentage of control.
# [9] = tested on: Keratinocyte (HaCaT); test: UV-preventing effect, cell viability after UVB (MTT), keratinocytes; format: cell-based; conditions: pretreated 0, 1, 10 and 100 μM 24 hours, UVB 20 mJ/cm^2, 48 hours; FIG. 6
# Description: as §1
# [10] = UV/veratric acid group, UV total 600 mJ/cm^2
compound,measurement,setting,value
"COc1ccc(C(=O)O)cc1OC [Veratric acid, 3,4-dimethoxybenzoic acid]",collagen synthesis (PICP),[1],increased collagen synthesis
same,cell death of UV-induced fibroblasts (cell viability),[2],prevented cell death
same,TGF-beta1 production,[3],excellently inhibited TGF-beta1 production
same,Skin elasticity,[4]; veratric acid 0.01 wt %,2.81
same,Skin elasticity,[4]; veratric acid 0.05 wt %,3.12
same,Skin elasticity,[4]; veratric acid 1 wt %,3.36
same,IGF-1 secretion,[5],increased the IGF-1 secretion of human hair follicle dermal pailla cells in a concentration-dependent manner
same,collagenase production,[6],decreased collgenase production in human normal fibroblasts
same,R-parameter value compared to the UV/control groups,[7],reduced
same,R1 value: Skin roughness,[7]; [10],0.462 ± 0.013
same,R2 value: Maximum roughness,[7]; [10],0.405 ± 0.011
same,R3 value: Average roughness,[7]; [10],0.219 ± 0.012
same,R4 value: Smoothness depth,[7]; [10],0.116 ± 0.010
same,R5 value: Arithmetic average roughness,[7]; [10],0.290 ± 0.013
same,proliferation of human hair follicle dermal papilla cells (O.D. as percentage of control),[8],increased the proliferation of human hair follicle dermal papilla cells in a concentration-dependent manner
same,cell death of UV-induced keratinocyte (cell viability),[9],prevented cell death
